Assay results: patent US12600696B2 (XENIOPRO GMBH, priority 2017, dated 2026)

Legend:
[1] = tested on: Notch signaling (hNotch1ΔE, human Notch1 receptor) in HeLa cells; assay: Notch reporter assay (luciferase luminescence readout in transfected HeLa cells); assay type: cell-based; conditions: Homo sapiens, 20 hours, relative to DMSO baseline level of 1.0, read-out: AVEw, weighted arithmetic mean of double-normalized Notch-reporter luciferase luminescence values (Activity Range)
Method: An according Notch-reporter assay, i.e. a luciferase-based luminescence readout, was used here to quantify the ability of the claimed small molecules to augment Notch signaling in a cellular system. For this purpose, HeLa cells, obtainable from the American Type Culture Collection (ATCC) under the accession number ATCC-CCL-2, were transiently transfected for 24 hours using FuGENE® HD (Promega, #E2311) as transfection reagent with expression vectors of a membrane-tethered form of the constitutively active intracellular domain of the human Notch1 receptor (hNotch1ΔE) to activate the signaling cascade (BPS Bioscience, human analogue to Notch Pathway Reporter Kit #60509 component C), a Firefly luciferase being expressed under the control of a Notch-responsive promoter to monitor Notch signaling (BPS Bioscience, Notch Pathway Reporter Kit #60509, CSL luciferase reporter vector from component A not premixed with Renilla luciferase vector), and a Renilla luciferase being constitutively expressed in a Notch signaling independent manner to include a measure for the cell number per sample (Promega, pRL-SV40, #E2231). HeLa cells were cultivated according to the protocol of the provider in DMEM medium (Fisherscientific, #11584456) containing 10% fetal bovine serum (Fisherscientific, #15517589). The transfection was carried out in a 100 mm-culture dish (StarLab, #CC7682-3394) with cells being properly attached to the plate at a cell confluency of 80-90% in a total volume of 7 mL culture medium. Per dish to be transfected, a transfection mix was prepared by adding to 238 μL Opti-MEM (Fisherscientific, #10149832) 40 μL of the hNotch1ΔE expression vector (100 ng/μL), 80 μL of the CSL luciferase reporter vector (40 ng/μL), 4 μL of the pRL-SV40-Renilla luciferase vector (10 ng/μL), and in the last step 18.1 μL of FuGENE® HD. After addition of FuGENE® HD the transfection mix was let stand for 15 min at room temperature and hereafter equally distributed into the culture dish. Subsequently, i.e. after 24 hours of transfection, the transfected cells (10.000 cells per well) were incubated with the test-compounds at a final concentration of 10 μM (diluted from 10 mM stock-solutions in DMSO to a final DMSO concentration of 0.1% v/v) or with the empty carrier DMSO at 0.1% v/v as control for 20 hours in 96-well plates suitable for luminescence readouts (CORNING, #3610). Hereafter, the cells were lysed with 30 μL per well of Passive Lysis Buffer (Promega, #E194A, component of Dual-Luciferase® Reporter Assay System, #E1910) and the Firefly as well as Renilla luciferase values were measured with a luminescence reader with applying 15 μL per well each of the corresponding enzyme substrates needed to create the luminescence signals (Promega, Dual-Luciferase® Reporter Assay System, #E1910).
The suitability of the assays for monitoring Notch signaling was controlled by additionally including a generally accepted commercial Notch inhibitor, i.e. DAPT, as negative control, as well as the reported Notch enhancer resveratrol (RES) as positive control (Pinchot et al., Cancer 2011, 117, 1386-1398; Truong et al., Ann. Surg. Oncol. 2011, 18, 1506-1511; Yu et al., Mol. Cancer Ther. 2013, 12, 1276-1287). Both control compounds were likewise tested at 10 μM.
Per single experiment the measurement was performed in six replicates per compound. For every compound, this experiment was repeated in three or more independent replicates. The values of the Notch-reporter luciferase were normalized by division through the corresponding individual Notch-independent Renilla values in order to eliminate the impact of variation in the absolute cell-numbers in between the samples. For every individual plate, a second normalization was performed against the equally weighted arithmetic mean (here abbreviated as AVE) of the six associated Renilla-normalized DMSO-control values within a single experiment in order to obtain the relative values to a baseline level of 1.0. […]

[2] = tested on: HL-60 cells (human acute myeloid leukemia cells); assay: alamarBlue proliferation assay with HL-60 cells; assay type: cell-based; conditions: 120 h, 5 days, relative to DMSO baseline level of 1.0, read-out: AVEw, weighted arithmetic mean of normalized fluorescence intensity values (Activity Range), HL-60 proliferation
Method: The antiproliferative activities of compounds falling under formula I, formula II, formula III, formula IV and formula V were investigated on cells or cell lines originating from a disorder of the myeloid cell compartment, the neuroendocrine system, the cervix, and the mucosal epithelium, as well as from the skin epithelium. To this end, HL-60 cells, TT cells, HeLa cells, CAL-27 cells and human primary epidermal keratinocytes (HPEK) were seeded into 96-well plates suitable for fluorescence assays (CORNING #3598) at following initial cell numbers: 1000 cells per well for HL-60; 9000 cells per well for TT; 2000 cells per well for HeLa, 2000 cells per well for CAL-27, 2000 cells per well for HPEK. The cells were treated with compounds at indicated final concentrations (diluted from the 1000× stock-solutions in DMSO to a final DMSO concentration of 0.1% v/v) or with the empty carrier DMSO at 0.1% v/v as control for 5 days. At day 5 after starting the treatments the cells were subjected to the alamarBlue® Proliferation Assay (Bio-Rad Serotec GmbH, BUF012B) according to the protocol of the manufacturer. The readout was taken with a multi-well plate-reader in the fluorescence mode with applying a filter for excitation at 560 nm (band width 10 nm) and for emission at 590 nm (band width 10 nm). Resveratrol (RES) treatment was included as control for growth inhibition.
The assays were performed in duplicate or more replicates of independent single experiments each containing a six-fold replicate for every condition. For every individual plate, the measured fluorescence intensity values of the conditions with compound treatment were normalized against the corresponding equally weighted arithmetic mean of the fluorescence intensity values of the six DMSO treated control wells in order to obtain the relative values to a baseline level of 1.0. The statistical calculations were performed in analogy to the luciferase assay as described above. To this end, two independent outlier analyses were performed according to the methods by Peirce and Chauvenet (Ross, Journal of Engineering Technology 2003, 1-12). Outliers confirmed by at least one of the methods were excluded from the calculations but not more than one value out of six per compound within a single experiment. The weighted arithmetic mean AVEw for each compound was calculated from the normalized values over all independent replicates of the single experiments comprising the six replicates each. The corresponding standard deviation for the weighted arithmetic mean was calculated according to the method described by Bronstein et al. (Bronstein, Semendjajew, Musiol, Mühlig, Taschenbuch der Mathematik, 5th edition 2001 (German), publisher: Verlag Harri Deutsch, Frankfurt am Main and Thun) and was combined with the Gauß′ error propagation associated with the performed calculation for the normalization. The resulting standard deviation is herein referred to as “combined standard deviation”.
HL-60 cells were cultivated according to the protocol of the provider in RPMI 1640 medium (Fisherscientific, #11554526) containing 10% fetal bovine serum (Fisherscientific, #15517589).
A compound is considered as a growth inhibitor of HL-60 cells, if—at a reference concentration of 20 μM—the weighted arithmetic mean of the normalized fluorescence intensity values after addition of the corresponding combined standard deviation amounts to 0.9 or lower, in particular to 0.8 or lower, 0.7 or lower, 0.6 or lower, 0.4 or lower, and 0.2 or lower, relative to the overall basis level of 1.0. The overall basis level was calculated as the weighted arithmetic mean of all normalized values from the DMSO control measurements in analogy to the calculations performed for the test-compounds. The corresponding combined standard deviation for the DMSO values amounts to less than 1·10^−2.

SMILES | fold induction at 10 µM [1] | activity at 20 µM [2]
CCOC(=O)c1ccc(Oc2ccc(C3CCCCC3)cc2)c(F)c1 [Compound 410, ethyl 4-(4-cyclohexylphenoxy)-3-fluorobenzoate] | 1.4 to 1.7 | 70 to 80%
COC(=O)c1ccc(Oc2ccc(C3CCCCC3)cc2)cc1 [Compound 041, methyl 4-(4-(cyclohexyl)phenoxy)benzoate] | 1.4 to 1.7 | 70 to 80%
CCOC(=O)c1ccc(Oc2ccc(C3CC4CCC3C4)cc2)nc1 (racemic) [Compound 133, ethyl 6-(4-((1S,4R)-bicyclo[2.2.1]heptan-2-yl)phenoxy)nicotinate] | 1.2 to 1.3 | 40 to 60%
CCc1ccc(Oc2ccc(C(=O)N(C)C)cc2)cc1 [Compound 216, 4-(4-ethylphenoxy)-N,N-dimethylbenzamide] | 1.4 to 1.7 | 0 to 20%
Cc1ccc(Oc2ccc(C(=O)N(C)C)cc2)cc1 [Compound 215, N,N-dimethyl-4-(p-tolyloxy)benzamide] | 1.1 to 1.2 | 70 to 80%
CC(C)c1ccc(Oc2ccc(C(=O)N(C)C)cn2)cc1 [Compound 322, 6-(4-Isopropylphenoxy)-N,N-dimethylnicotinamide] | ≥ 2 | 70 to 80%
COC(=O)c1ccc(Oc2ccc(C3(C(F)(F)F)CC3)cc2)cc1 [Compound 712, Methyl 4-(4-(1-(trifluoromethyl)cyclopropyl)phenoxy)benzoate] | 1.1 to 1.2 | 80 to 90%
CN(C)C(=O)c1ccc(Oc2ccc(C3CC4CCC3CC4)cc2)nc1 (centres unmarked) [Compound 337, 6-(4-((1s,4s)-bicyclo[2.2.2]octan-2-yl)phenoxy)-N,N-dimethylnicotinamide] | 1.4 to 1.7 | 80 to 90%
CCCCCc1ccc(Oc2ccc(C(=O)O)cn2)cc1 [Compound 073, 6-(4-pentylphenoxy)nicotinic acid] | 1.4 to 1.7 | 80 to 90%
COC(=O)c1ccc(Oc2ccc(C34CC5CC(CC(C5)C3)C4)cc2)cc1 [Compound 045, methyl 4-(4-((3r,5r,7r)-adamantan-1-yl)phenoxy)benzoate] | 1.7 to 2 | 40 to 60%
COC(=O)c1ccc(Oc2ccc(C3CC4CCC3CC4)cc2)cc1 (racemic) [Compound 044, (±)-Methyl 4-(4-(bicyclo[2.2.2]octan-2-yl)phenoxy)benzoate] | 1.3 to 1.4 | 40 to 60%
CCOC(=O)c1ccc(Oc2ccc(C3CC4CCC3CC4)cc2)nc1 (racemic) [Compound 134, ethyl 6-(4-((1s,4s)-bicyclo[2.2.2]octan-2-yl)phenoxy)nicotinate] | 1.4 to 1.7 | 70 to 80%
CC(C)c1ccc(Oc2ccc(C(=O)N(C)C)cc2)cc1 [Compound 221, 4-(4-isopropylphenoxy)-N,N-dimethylbenzamide] | 1.1 to 1.2 | 40 to 60%
CCOC(=O)c1ccc(Oc2ccc(C3CC4CCC3C4)cc2)cc1 (racemic) [Compound 066, ethyl 4-(4-((1S,4R)-bicyclo[2.2.1]heptan-2yl)phenoxy)benzoate] | 1.3 to 1.4 | 40 to 60%
CN(C)C(=O)c1ccc(Oc2ccc(C(F)(F)F)cc2)nc1 [Compound 325, N,N-dimethyl-6-(4-(trifluoromethyl)phenoxy)nicotinamide] | 1.2 to 1.3 | 80 to 90%
CCCCc1ccc(Oc2ccc(C(=O)OCC)cc2F)cc1 [Compound 395, Ethyl 4-(4-butylphenoxy)-3-fluorobenzoate] | 1.4 to 1.7 | 80 to 90%
CCCc1ccc(Oc2ccc(C(=O)N(C)C)cc2)cc1 [Compound 217, N,N-dimethyl-4-(4-propylphenoxy)benzamide] | 1.2 to 1.3 | 60 to 70%
Cc1ccc(Oc2ccc(C(=O)N(C)C)cn2)cc1 [Compound 316, N,N-dimethyl-6-(p-tolyloxy)nicotinamide] | 1.2 to 1.3 | 80 to 90%
CN(C)C(=O)c1ccc(Oc2ccc(C3(C(F)(F)F)CC3)cc2)cc1 [Compound 784, N,N-Dimethyl-4-(4-(1-(trifluoromethyl)cyclopropyl)phenoxy)-benzamide] | 1.2 to 1.3 | 40 to 60%
CCC(C)(C)c1ccc(Oc2ccc(C(=O)OC)cc2)cc1 [Compound 030, Methyl 4-(4-(tert-Pentyl)phenoxy)benzoate] | ≥ 2 | 80 to 90%
COC(=O)c1ccc(Oc2ccc(C3C[C@@H]4CC[C@H]3C4)cc2)cc1 (stereo partly drawn) [Compound 043, methyl 4-(4-((1S,4R)-bicyclo[2.2.1]heptan-2-yl)phenoxy)benzoate] | 1.7 to 2 | 40 to 60%
CCc1ccc(Oc2ccc(C(=O)OC)cn2)cc1 [Compound 092, methyl 6-(4-ethylphenoxy)nicotinate] | 1.2 to 1.3 | 80 to 90%
